# Measurements from publication PMC9137037 (Frontiers in Oncology, 2022).
# Where no end group is shown, it is not given here.
# Assays:
# BALB/c mice = assay: ELISA antibody titers in sera of immunized BALB/c mice; assay type: in vivo; settings: mouse; Figure 1C
# Description: The peptide vaccine MVF-PD-1(92-110) was dissolved in sterile water and mixed with either ISA 720 or ISA 51 (1:1) ratio. We utilized the well-established murine colon carcinoma cell line CT26 tumor model in syngeneic BALB/c mice to evaluate the effects of vaccination previously described ([23]). Briefly, 6–8-week-old female BALB/c mice were immunized with the peptide vaccine, and 2 weeks after the third immunization, the mice were challenged with 1×10^5 CT26 colon cancer cells by subcutaneous injection (SC). The CT26 cancer cell line was maintained in the DMEM medium with 10% FBS 5% CO2 at 37 °C. […] Tumor growth was monitored daily, especially 7 days after the tumor challenge. […]
# Enzyme-linked immunosorbent assay (ELISA) was performed per our lab standard procedure. […] After washing, the antibody was detected using 50 μl of 0.15% H2O2 in 24 mM of citric acid and 5 mM of the sodium phosphate buffer (pH5.2) with 0.5 mg/ml 2, […] (3-ethylbenzthiazole- 6-sulfonic acid, ABTS; Sigma, St. Louis, MO, USA) as the chromophore. […] Absorbance was read at 415 nm using an ELISA microplate reader (SPECTRAmax PLUS384; Molecular Devices, San Jose, CA, USA). The highest dilution at the cutoff absorbance 0.2 were determined as the antibody titer. […]
# [1] = target: T1, human recombinant protein PD-1 (Homo sapiens, UniProt Q15116); assay: ELISA activity of dog sera with human recombinant protein PD-1; assay type: binding; settings: Figure 3F
# T1 construct: His tag; purchased ACROBiosystems PD1-H5221
# T1 sequence (Q15116 25-288): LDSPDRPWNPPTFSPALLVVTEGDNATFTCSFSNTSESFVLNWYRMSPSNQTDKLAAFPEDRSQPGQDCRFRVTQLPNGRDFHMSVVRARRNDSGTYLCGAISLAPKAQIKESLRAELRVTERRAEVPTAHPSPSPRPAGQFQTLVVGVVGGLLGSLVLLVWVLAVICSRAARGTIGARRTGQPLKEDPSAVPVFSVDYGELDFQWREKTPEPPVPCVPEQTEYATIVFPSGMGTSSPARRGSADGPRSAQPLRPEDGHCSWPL
# Description: For the detection of PD-1 human recombinant protein activity, the human recombinant protein PD-1 (PD1-H5221, HIS tag; ACROBiosystems, Newark, DE, USA) 100 μl at the concentration of […] were coated on the 96 wells plate as an antigen. The following procedures were performed as the description of ELISA.
# In order to investigate the diversity of the antibody produced by immunized dogs, isotypes IgM, IgA, IgG1, and IgG2 in dogs were detected after being immunized with the peptide vaccine ( Figure 3E ). In MVF-PD-1(92-110) vaccine-treated dogs, the majority of isotype is IgG2, which ranged from 74% to 81%, the IgG1 range from 12% to 18%, IgM from 5% to 9%, and IgA less than 2%. Peptide sera from dogs #1, 2, and 3 were used to detect the antibody activity against human recombinant protein PD-1.
sequence,measurement,setting,value
KLLSLIKGVIVHRLEGVEGPSLGAISLAPKAQIKESLRAEL [MVF-PD-1(92-110)],immunogenicity (summary),BALB/c mice,High immunogenicity ( Figure 1C );
same,activity against recombinant PD-1 protein (summary),[1],high activity against recombinant PD-1 protein
